The target of assay [1] is T1, human His-PIM1 [2-313] (Homo sapiens, UniProt P11309).
T1 construct: purified human His-PIM1 [2-313] enzyme; His (N); purchased University of Dundee, Scotland; host or cells: baculovirus system
The assay can be described thus: PIM1 in-vitro mobility shift assay (Caliper LC3000, FL-Ahx-Bad phosphorylation). The note with it: 1.5 h; percent inhibition at 0.3 uM compound; read-out: PIM1 % I at 0.3 uM. Type of assay: biochemical. The source says:
PIM1 In-Vitro Mobility Shift Assay
One may determine the activity of purified human His-PIM1 [2-313] enzyme in-vitro using a mobility shift assay on a Caliper LC3000 reader (Caliper, Mass.), which measures fluorescence of a phosphorylated and unphosphorylated FL-Ahx-Bad (FITC-(AHX)RSRHSSYPAGT-COOH, Primm 200606-00289, Primm Biotech, Mass.) and calculates a ratiometric value to determine percent turnover. One may express PIM1 (University of Dundee, Scotland) in baculovirus system with a typical yield of >85% purity.
(§1) One determines phosphorylation of the FL-Ahx-Bad in the presence and absence of the compound of interest. One preincubates 5 µl of Enzyme/Substrate/adenosine triphosphate (ATP) mix consisting of 2.4 nM PIM1, 3.6 uM FL-Ahx-Bad, and 240 uM ATP in 1.2× buffer with 2 ul of compound for 20 minutes at 25° C. One initiates reactions with 5 ul of Metal mix consisting of 24 mM MgCl2 in 1.2× buffer and incubated at 25° C. for 90 minutes and stops the reactions by addition of 5 ul of Stop mix consisting of 100 mM HEPES, 121 mM ethylenediamine tetraacetic acid, 0.8% Coatin Reagent 3 (Caliper, Mass.), and 0.01% Tween. One detects phosphorylated and unphosphorylated substrate by a Caliper LC3000 reader (Caliper, Mass.) in the presence of separation buffer consisting of 100 mM HEPES, 16 mM ethylenediamine tetraacetic acid, 0.1% Coatin Reagent 3 (Caliper, Mass.), 0.015% Brij-35, 5% DMSO, and 5.6 mM MgCl2. One may use the following separation conditions for a Caliper LC3000: −1.0 PSI, −2000 V upstream voltage, −400 V downstream voltage, 0.2 second sample sip, 45 second post sip, 10% laser strength.
The table 1 below provides the percent inhibition of PIM1 at 0.3 micromolar for Examples provided herein. Several examples were tested more than once. Variations in the experimental outcomes, negative values, or values over 100% inhibition are presumably due to experimental error inherent in the assay.

In assay [2] the target is T2, human His-PIM2 [23-299] (Homo sapiens, UniProt Q9P1W9).
T2 construct: purified human His-PIM2 [23-299] enzyme; His (N); host or cells: E. coli
Description: PIM2 in-vitro mobility shift assay (Caliper LC3000, FL-Ahx-Bad phosphorylation). Conditions: 1.5 h; percent inhibition at 0.3 uM compound; read-out: PIM2 % I at 0.3 uM. Type of assay: biochemical.
From the text: PIM2 In-Vitro Mobility Shift Assay
One may determine the activity of purified human His-PIM2 [23-299] enzyme in-vitro using a mobility shift assay on a Caliper LC3000 reader (Caliper, Mass.), which measures fluorescence of a phosphorylated and unphosphorylated FL-Ahx-Bad (FITC-(AHX)RSRHSSYPAGT-COOH, Primm 200606-00289, Primm Biotech, Mass.) and calculates a ratiometric value to determine percent turnover. One may express PIM2 (produced at AstraZeneca, R&D Boston) in E. coli cells with a typical yield of >90% purity.
as §1, with “5 uL” for “5 µl”, “and 12” for “and 240”, “5 uL” for “5 ul”, “and incubates” for “and incubated”, “90 minutes. One” for “90 minutes and”, “stops” for “stops the”

Where a name gives a salt, the structure may show the parent alone.

T1 sequence (P11309 2-313): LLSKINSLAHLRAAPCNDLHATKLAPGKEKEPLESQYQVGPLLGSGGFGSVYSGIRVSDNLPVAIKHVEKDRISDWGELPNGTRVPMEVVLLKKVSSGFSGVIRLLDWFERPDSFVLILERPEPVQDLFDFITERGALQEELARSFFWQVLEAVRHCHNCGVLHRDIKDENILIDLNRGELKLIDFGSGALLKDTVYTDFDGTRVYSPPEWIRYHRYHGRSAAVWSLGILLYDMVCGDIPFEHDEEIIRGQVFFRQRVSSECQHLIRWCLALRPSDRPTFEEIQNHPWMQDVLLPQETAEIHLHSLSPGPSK
T2 sequence (Q9P1W9 23-299): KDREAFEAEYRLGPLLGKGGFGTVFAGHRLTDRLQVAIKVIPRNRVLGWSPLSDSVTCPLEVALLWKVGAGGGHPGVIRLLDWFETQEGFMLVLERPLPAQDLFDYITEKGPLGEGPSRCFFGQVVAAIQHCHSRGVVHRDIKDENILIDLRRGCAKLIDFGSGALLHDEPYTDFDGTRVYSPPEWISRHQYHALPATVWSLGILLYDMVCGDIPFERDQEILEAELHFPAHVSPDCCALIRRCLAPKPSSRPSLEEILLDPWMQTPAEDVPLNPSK

As for `COc1cc(/C=C2\SC(=O)NC2=O)c(N2CCN(C(C)C)CC2)cc1OC` [Example 53, (5Z)-5-{2-(4-isopropylpiperazin-1-yl)-4,5-dimethoxybenzylidene}-thiazolidine-2,4-dione], the inhibition at 0.3 µM amounted to 92.3% in assay [1] and 82.1% in assay [2].
The corresponding values for `COc1cc(/C=C2\SC(=O)NC2=O)c(N2CCC(N(C)C)CC2)cc1OC` [Example 54, (5Z)-5-{2-(4-(dimethylamino)piperidin-1-yl)-4,5-dimethoxybenzylidene}-thiazolidine-2,4-dione] are 88.1% and 73.1%.
Turning to `CC(C)(C)OC(=O)N1CCN(c2ccc(C(F)(F)F)cc2/C=C2\SC(=O)NC2=O)CC1` [Example 55, (Z)-tert-butyl 4-(2-((2,4-dioxothiazolidin-5-ylidene)methyl)-4-(trifluoromethyl)phenyl)piperazine-1-carboxylate], the inhibition at 0.3 µM in assay [1] is 11%; in assay [2], under 5%.
`CN(C)C1CCN(c2ccc([N+](=O)[O-])cc2/C=C2\SC(=O)NC2=O)C1` (centres unmarked) [Example 56, (Z)-5-(2-(3-(dimethylamino)pyrrolidin-1-yl)-5-nitrobenzylidene)thiazolidine-2,4-dione hydrochloride]: the inhibition at 0.3 µM was determined as 90.7% in assay [1] and 33.5% in assay [2].
The corresponding values for `CN(C)C1CCN(c2ccc(C(N)=O)cc2/C=C2\SC(=O)NC2=O)C1` (centres unmarked) [Example 57, (Z)-4-(3-(dimethylamino)pyrrolidin-1-yl)-3-((2,4-dioxothiazolidin-5-ylidene)methyl)benzamide hydrochloride] are 53.3% and 42.6%.
In the case of `CC(C)(C)OC(=O)N1CCN(c2ccccc2/C=C2\SC(=O)NC2=O)CC1` [Example 58, (Z)-tert-butyl 4-(2-((2,4-dioxothiazolidin-5-ylidene)methyl)phenyl)piperazine-1-carboxylate], the results for the inhibition at 0.3 µM in assay [1] and in assay [2] were 16% and 7.1%, respectively.
As for `COc1cc(/C=C2\SC(=O)NC2=O)ccc1OCCN1CCCCC1` [Example 59, (Z)-5-(3-methoxy-4-(2-(piperidin-1-yl)ethoxy)benzylidene)thiazolidine-2,4-dione], the inhibition at 0.3 µM is under 5% in assay [1] and 6.6% in assay [2].
The corresponding values for `O=C1NC(=O)/C(=C/c2ccccc2OCCO)S1` [Example 60, (Z)-5-(2-(2-hydroxyethoxy)benzylidene)thiazolidine-2,4-dione] are 35.4% and 11.3%.
As for `COc1ccc(OCCN2CCCCC2)c(/C=C2\SC(=O)NC2=O)c1` [Example 61, (Z)-5-(5-methoxy-2-(2-(piperidin-1-yl)ethoxy)benzylidene)thiazolidine-2,4-dione], the inhibition at 0.3 µM in assay [1] was 81.8%; in assay [2] it was 28.1%.
`COc1ccc(OCCN2CCOCC2)c(/C=C2\SC(=O)NC2=O)c1` [Example 62, (Z)-5-(5-methoxy-2-(2-morpholinoethoxy)benzylidene)thiazolidine-2,4-dione]: the figures for the inhibition at 0.3 µM in assay [1] and in assay [2] were 62.1% and 17.5%, respectively.
With `CCN(CC)CCOc1ccc(OC)cc1/C=C1\SC(=O)NC1=O` [Example 63, (Z)-5-(2-(2-(diethylamino)ethoxy)-5-methoxybenzylidene)thiazolidine-2,4-dione], the values for the inhibition at 0.3 µM in assay [1] and in assay [2] were 79.2% and 21.5%, respectively.
The corresponding values for `CCN(CC)CCOc1ccccc1/C=C1\SC(=O)NC1=O` [Example 64, (Z)-5-(2-(2-(diethylamino)ethoxy)benzylidene)thiazolidine-2,4-dione] are 86.5% and 25.7%.
The corresponding values for `COc1cc(/C=C2\SC(=O)NC2=O)c(-c2cccnc2)cc1OC` [Example 65, (Z)-5-(4,5-dimethoxy-2-(pyridin-3-yl)benzylidene)thiazolidine-2,4-dione] are 45.3% and 18.9%.

Values taken from patent US8901307B2, “Chemical compounds 251” (AstraZeneca AB, priority 2008, dated 2014).
